In PubChem BioAssay (NCI):
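How tested: cells in 96-well plates exposed to compound for 48 hours at five concentrations. GI50: concentration for 50% inhibition of growth. The concentration for full growth arrest is given as TGI.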

Tests used:
Test in all cases: NCI anticancer screen, dose series, 48 h
SN12C renal = system: SN12C renal
NCI/ADR-RES ovarian = system: NCI/ADR-RES ovarian
HOP-92 NSCLC = system: HOP-92 NSCLC
SK-OV-3 ovarian = system: SK-OV-3 ovarian
SK-MEL-28 melanoma = system: SK-MEL-28 melanoma
SF-539 CNS = system: SF-539 CNS
SF-295 CNS = system: SF-295 CNS
HCT-116 colon = system: HCT-116 colon
OVCAR-4 ovarian = system: OVCAR-4 ovarian
NCI-H522 lung = system: NCI-H522 lung
NCI-H226 lung = system: NCI-H226 lung
PC-3 prostate = system: PC-3 prostate
CCRF-CEM leukemia = system: CCRF-CEM leukemia
MDA-MB-435 = system: MDA-MB-435
UACC-257 melanoma = system: UACC-257 melanoma
MALME-3M melanoma = system: MALME-3M melanoma
TK-10 renal = system: TK-10 renal
SK-MEL-2 melanoma = system: SK-MEL-2 melanoma
IGROV1 ovarian = system: IGROV1 ovarian
DU-145 prostate = system: DU-145 prostate
HOP-62 NSCLC = system: HOP-62 NSCLC
OVCAR-8 ovarian = system: OVCAR-8 ovarian
HCC-2998 colon = system: HCC-2998 colon
A498 renal = system: A498 renal
ACHN renal = system: ACHN renal
A549 NSCLC = system: A549 NSCLC
CAKI-1 renal = system: CAKI-1 renal
SF-268 CNS = system: SF-268 CNS
MOLT-4 leukemia = system: MOLT-4 leukemia
HT29 colon = system: HT29 colon
RXF 393 renal = system: RXF 393 renal
786-0 renal = system: 786-0 renal
RPMI-8226 leukemia = system: RPMI-8226 leukemia
KM12 colon = system: KM12 colon
MDA-MB-468 breast = system: MDA-MB-468 breast
NCI-H460 lung = system: NCI-H460 lung
HCT-15 colon = system: HCT-15 colon
T-47D breast = system: T-47D breast
UO-31 renal = system: UO-31 renal
SNB-19 CNS = system: SNB-19 CNS
SR leukemia = system: SR leukemia
K-562 leukemia = system: K-562 leukemia
M14 melanoma = system: M14 melanoma
COLO 205 colon = system: COLO 205 colon
OVCAR-5 ovarian = system: OVCAR-5 ovarian
MCF7 breast = system: MCF7 breast
MDA-MB-231 breast = system: MDA-MB-231 breast
UACC-62 melanoma = system: UACC-62 melanoma
EKVX NSCLC = system: EKVX NSCLC
SK-MEL-5 melanoma = system: SK-MEL-5 melanoma
HL-60(TB) leukemia = system: HL-60(TB) leukemia
LOX IMVI melanoma = system: LOX IMVI melanoma
BT-549 breast = system: BT-549 breast
SNB-75 CNS = system: SNB-75 CNS
NCI-H23 lung = system: NCI-H23 lung
U251 CNS = system: U251 CNS
SW-620 colon = system: SW-620 colon
HS 578T breast = system: HS 578T breast
OVCAR-3 ovarian = system: OVCAR-3 ovarian

CC1=C(c2cc(-c3ccc(Cl)cc3)c(C#N)c(N)n2)C(c2ccccc2)NC(=S)N1 (configuration not stated)
GI50 (SN12C renal): 5.86 µM
TGI (SN12C renal): 21.6 µM
GI50 (NCI/ADR-RES ovarian): 0.671 µM
TGI (NCI/ADR-RES ovarian): 26.2 µM
GI50 (HOP-92 NSCLC): 19.1 µM
TGI (HOP-92 NSCLC): 62.7 µM
GI50 (SK-OV-3 ovarian): 23.7 µM
TGI (SK-OV-3 ovarian): 67.9 µM
GI50 (SK-MEL-28 melanoma): 14.9 µM
TGI (SK-MEL-28 melanoma): 30 µM
GI50 (SF-539 CNS): 10.1 µM
TGI (SF-539 CNS): 23 µM
GI50 (SF-295 CNS): 10.8 µM
TGI (SF-295 CNS): 24.4 µM
GI50 (HCT-116 colon): 0.147 µM
TGI (HCT-116 colon): 17.6 µM
GI50 (OVCAR-4 ovarian): 28 µM
TGI (OVCAR-4 ovarian): > 100 µM
GI50 (NCI-H522 lung): 14.7 µM
TGI (NCI-H522 lung): 29.5 µM
GI50 (NCI-H226 lung): 15.8 µM
TGI (NCI-H226 lung): 44.6 µM
GI50 (PC-3 prostate): 11 µM
TGI (PC-3 prostate): 53.1 µM
GI50 (CCRF-CEM leukemia): 0.303 µM
TGI (CCRF-CEM leukemia): 16.9 µM
GI50 (MDA-MB-435): 7.44 µM
TGI (MDA-MB-435): 30.3 µM
GI50 (UACC-257 melanoma): 16.1 µM
TGI (UACC-257 melanoma): 38.8 µM
GI50 (MALME-3M melanoma): 14 µM
TGI (MALME-3M melanoma): 32.1 µM
GI50 (TK-10 renal): 23.1 µM
TGI (TK-10 renal): 61 µM
GI50 (SK-MEL-2 melanoma): 17.5 µM
TGI (SK-MEL-2 melanoma): 34.2 µM
GI50 (IGROV1 ovarian): 17.2 µM
TGI (IGROV1 ovarian): 36.4 µM
GI50 (DU-145 prostate): 13.1 µM
TGI (DU-145 prostate): 29.3 µM
GI50 (HOP-62 NSCLC): 16 µM
TGI (HOP-62 NSCLC): 37 µM
GI50 (OVCAR-8 ovarian): 20 µM
TGI (OVCAR-8 ovarian): > 86.4 µM
GI50 (HCC-2998 colon): 13.4 µM
TGI (HCC-2998 colon): 26.4 µM
GI50 (A498 renal): > 44.5 µM
TGI (A498 renal): > 62.8 µM
GI50 (ACHN renal): 15.5 µM
TGI (ACHN renal): 30.9 µM
GI50 (A549 NSCLC): 48.8 µM
TGI (A549 NSCLC): > 88 µM
GI50 (CAKI-1 renal): 16.5 µM
TGI (CAKI-1 renal): 43.9 µM
GI50 (SF-268 CNS): 17.6 µM
TGI (SF-268 CNS): 67.2 µM
GI50 (MOLT-4 leukemia): 1.37 µM
TGI (MOLT-4 leukemia): > 66.2 µM
GI50 (HT29 colon): 12.2 µM
TGI (HT29 colon): 27.6 µM
GI50 (RXF 393 renal): 11.6 µM
TGI (RXF 393 renal): 24.3 µM
GI50 (786-0 renal): 16.3 µM
TGI (786-0 renal): 35.4 µM
GI50 (RPMI-8226 leukemia): 0.692 µM
TGI (RPMI-8226 leukemia): 34.1 µM
GI50 (KM12 colon): 16.9 µM
TGI (KM12 colon): 35.5 µM
GI50 (MDA-MB-468 breast): 8.45 µM
TGI (MDA-MB-468 breast): 22.7 µM
GI50 (NCI-H460 lung): 20.3 µM
TGI (NCI-H460 lung): 53.8 µM
GI50 (HCT-15 colon): 0.171 µM
TGI (HCT-15 colon): 18.2 µM
GI50 (T-47D breast): 11.4 µM
TGI (T-47D breast): 47.5 µM
GI50 (UO-31 renal): 13.3 µM
TGI (UO-31 renal): 26.3 µM
GI50 (SNB-19 CNS): 16.7 µM
TGI (SNB-19 CNS): 53.8 µM
GI50 (SR leukemia): 0.0842 µM
TGI (SR leukemia): > 48.7 µM
GI50 (K-562 leukemia): 0.277 µM
TGI (K-562 leukemia): > 100 µM
GI50 (M14 melanoma): 3.33 µM
TGI (M14 melanoma): 25.4 µM
GI50 (COLO 205 colon): 17 µM
TGI (COLO 205 colon): 33.5 µM
GI50 (OVCAR-5 ovarian): 17.8 µM
TGI (OVCAR-5 ovarian): 35.5 µM
GI50 (MCF7 breast): 0.177 µM
TGI (MCF7 breast): 28.5 µM
GI50 (MDA-MB-231 breast): 13.6 µM
TGI (MDA-MB-231 breast): 29.6 µM
GI50 (UACC-62 melanoma): 13.1 µM
TGI (UACC-62 melanoma): 26.9 µM
GI50 (EKVX NSCLC): 16.4 µM
TGI (EKVX NSCLC): 42.6 µM
GI50 (SK-MEL-5 melanoma): 6.62 µM
TGI (SK-MEL-5 melanoma): 20.1 µM
GI50 (HL-60(TB) leukemia): 0.168 µM
GI50 (LOX IMVI melanoma): 1.34 µM
TGI (LOX IMVI melanoma): 14.4 µM
GI50 (BT-549 breast): 14.1 µM
TGI (BT-549 breast): 29.5 µM
GI50 (SNB-75 CNS): 7.01 µM
TGI (SNB-75 CNS): 47 µM
GI50 (NCI-H23 lung): 13.6 µM
TGI (NCI-H23 lung): 29.6 µM
GI50 (U251 CNS): 12.5 µM
TGI (U251 CNS): 28.1 µM
GI50 (SW-620 colon): 11 µM
TGI (SW-620 colon): 32.5 µM
GI50 (HS 578T breast): 19.1 µM
TGI (HS 578T breast): > 96.2 µM
GI50 (OVCAR-3 ovarian): 13.8 µM
TGI (OVCAR-3 ovarian): 47.4 µM
